According to PubChem BioAssay AID651650 (Sanford-Burnham Center for Chemical Genomics, 2012):
The source made the active and inactive calls.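 Rule for the calls: active = mean IC50 below 20 µM in each of the two panels, so potent in both; inactive = the rest.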

Target: Neuropilin-1 (Homo sapiens) (UniProt O14786)
Experiment: NRP-1 b1b2 CendR peptide binding inhibitors, dose response, biochemical, FP and AlphaScreen panel (AID 651650)
Conditions: NRP-1 b1b2 / RPARPAR peptide binding, FP or AlphaScreen
[1] = AlphaScreen, run 1, individual panel run IC50
[2] = FP, run 1, individual panel run IC50
[3] = FP, run 2, individual panel run IC50

Chain of Neuropilin-1 (Homo sapiens) (O14786 whole entry, looked up): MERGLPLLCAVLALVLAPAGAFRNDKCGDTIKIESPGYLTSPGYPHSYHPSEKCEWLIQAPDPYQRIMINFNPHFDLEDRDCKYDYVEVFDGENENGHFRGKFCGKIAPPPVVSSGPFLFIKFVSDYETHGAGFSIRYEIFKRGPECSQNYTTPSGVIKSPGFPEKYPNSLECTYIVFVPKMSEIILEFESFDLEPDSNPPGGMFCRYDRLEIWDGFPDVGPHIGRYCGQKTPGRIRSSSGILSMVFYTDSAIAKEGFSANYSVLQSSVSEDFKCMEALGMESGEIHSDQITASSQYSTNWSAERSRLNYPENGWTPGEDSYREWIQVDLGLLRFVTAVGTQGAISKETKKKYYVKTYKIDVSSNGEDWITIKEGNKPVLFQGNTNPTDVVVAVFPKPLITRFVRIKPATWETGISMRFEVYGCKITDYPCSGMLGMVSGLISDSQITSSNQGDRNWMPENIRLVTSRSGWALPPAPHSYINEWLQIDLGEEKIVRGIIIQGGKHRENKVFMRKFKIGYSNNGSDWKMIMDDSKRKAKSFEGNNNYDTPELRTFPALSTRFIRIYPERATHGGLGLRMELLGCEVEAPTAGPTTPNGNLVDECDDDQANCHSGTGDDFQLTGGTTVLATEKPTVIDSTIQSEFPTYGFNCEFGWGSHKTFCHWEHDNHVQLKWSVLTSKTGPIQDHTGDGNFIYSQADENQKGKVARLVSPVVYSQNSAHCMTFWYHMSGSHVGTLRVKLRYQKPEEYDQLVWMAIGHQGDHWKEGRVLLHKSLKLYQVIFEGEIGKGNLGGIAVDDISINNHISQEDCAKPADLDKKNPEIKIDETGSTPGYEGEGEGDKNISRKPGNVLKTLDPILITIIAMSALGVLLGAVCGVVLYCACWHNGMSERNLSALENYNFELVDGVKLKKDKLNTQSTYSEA

| SMILES | IC50 (AlphaScreen, mean of runs) | IC50 [1] [µM] | IC50 (FP, mean of runs) | IC50 [2] [µM] | IC50 [3] [µM] |
| --- | --- | --- | --- | --- | --- |
| Cc1onc(-c2ccc(Cl)cc2Cl)c1-c1csc(COc2ccccc2)n1 | inactive | 59.1 | > 95 µM (inactive) | > 95 | > 95 |
| CCOc1ccc(S(=O)(=O)N2CCN(C(=O)c3sccc3C)CC2)cc1 | 14.5 µM | 14.5 | > 95 µM (inactive) | > 95 | > 95 |
| CC(C)NC(=O)c1c(CSc2ccccc2)noc1C(=O)NCc1ccccc1 | > 100 µM (inactive) | > 100 | > 95 µM (inactive) | > 95 | > 95 |
| CN1C[C@H](CO)C=C2c3cccc4[nH]cc(c34)C[C@H]21 | 14.4 µM | 14.4 | > 95 µM (inactive) | > 95 | > 95 |
| COc1cccc(-c2ccc3c(c2)N(Cc2ccccc2OC)C(=O)C(C)S3)c1 (stereo not given) | > 100 µM (inactive) | > 100 | > 95 µM (inactive) | > 95 | > 95 |
| COc1ccc([C@H]2/C=C\CN(C(=O)C3CC3)[C@@H](C)C(=O)N2Cc2ccc(F)cc2)cc1 | > 100 µM (inactive) | > 100 | > 95 µM (inactive) | > 95 | > 95 |
| CCOc1ccc(S(=O)(=O)NNC(=O)c2cc3ccccc3o2)cc1 | > 100 µM (inactive) | > 100 | > 95 µM (inactive) | > 95 | > 95 |
| Cc1cc(S(=O)(=O)NC2CCCCC2)ccc1OCC(=O)N1CCOCC1 | 15.2 µM | 15.2 | > 95 µM (inactive) | > 95 | > 95 |
| CCNC(=O)C1(C)CCCN(C(=O)c2nc(C)oc2C)C1 (stereo not given) | > 100 µM (inactive) | > 100 | > 95 µM (inactive) | > 95 | > 95 |
| CCCCCc1c(-c2cccc(Cl)c2)ncn1CCc1ccccc1OC | > 100 µM (inactive) | > 100 | > 95 µM (inactive) | > 95 | > 95 |
| Cc1onc(-c2ccccc2)c1C(=O)N1CCCC1 | > 100 µM (inactive) | > 100 | > 95 µM (inactive) | > 95 | > 95 |
| NC(=S)NNC(=S)Nc1ccccc1 | > 100 µM (inactive) | > 100 | > 95 µM (inactive) | > 95 | > 95 |
| CCn1cc(C(=O)N2CCN(C(=O)c3ccco3)CC2)c2cc(OC)c(OC)cc2c1=O | inactive | 25.4 | > 95 µM (inactive) | > 95 | > 95 |
| O=C(c1ccc(-c2cccc(Cl)c2)o1)N1CCN(c2ccc([N+](=O)[O-])cc2)CC1 | > 100 µM (inactive) | > 100 | inactive | > 95 | 39.5 |
| COc1cccc(C(=O)N2N=C(c3ccccc3)CC2(O)C(F)(F)F)c1 (stereo not given) | > 100 µM (inactive) | > 100 | > 95 µM (inactive) | > 95 | > 95 |
| Cc1cc(C)n2c(SCC(=O)Nc3cccc(S(N)(=O)=O)c3)nnc2n1 | > 100 µM (inactive) | > 100 | > 95 µM (inactive) | > 95 | > 95 |
| CCn1c(=O)c(C(=O)NCCNCCO)c(O)c2ccccc21 | > 100 µM (inactive) | > 100 | > 95 µM (inactive) | > 95 | > 95 |

| SMILES | IC50 (AlphaScreen, mean of runs) | IC50 [1] [µM] | IC50 (FP, mean of runs) | IC50 [2] [µM] | IC50 [3] [µM] |
| --- | --- | --- | --- | --- | --- |
| C=CCOc1c(CNc2ncn[nH]2)cccc1OCC | > 100 µM (inactive) | > 100 | 9.9 µM | 9.93 | > 95 |
| O=C(Nc1cccc(C(F)(F)F)c1)C1Cc2c(-c3cccc(F)c3)ccnc2O1 (stereo not given) | > 100 µM (inactive) | > 100 | > 95 µM (inactive) | > 95 | > 95 |
| COc1ccc(Cl)cc1NC(=O)C(C)N1CCc2ccccc21 (stereo not given) | inactive | 45.6 | inactive | 50 | 30.3 |
| C[C@@H]1CC=C[C@H]2[C@H]1C(=O)N(Cc1ccccc1)[C@H]2c1ccc(/C=C/c2ccccc2)cc1F | > 100 µM (inactive) | > 100 | > 95 µM (inactive) | > 95 | > 95 |
| CC(CN1CCCCC1)OC(=O)c1ccc(Cl)cc1Cl (stereo not given) | > 100 µM (inactive) | > 100 | > 95 µM (inactive) | > 95 | > 95 |
| CCOC(=O)Cc1ccc(NS(=O)(=O)c2ccc(SC)cc2)cc1 | > 100 µM (inactive) | > 100 | > 95 µM (inactive) | > 95 | > 95 |
| COc1ccc(-c2noc(CN(C(=O)c3ccc4c(c3)OCO4)C(C)C)n2)cc1 | > 100 µM (inactive) | > 100 | > 95 µM (inactive) | > 95 | > 95 |
| Cc1ccc(Nc2c(-c3ccccc3O)nc3ncccn23)cc1 | > 100 µM (inactive) | > 100 | > 95 µM (inactive) | > 95 | > 95 |
| COc1ccc(N(CC(=O)NCc2ccco2)C(=O)CCC(=O)Nc2ccccn2)cc1 | > 100 µM (inactive) | > 100 | > 95 µM (inactive) | > 95 | > 95 |
| CCCN(C(=O)Cn1c(C(F)(F)F)nc2ccccc21)C1CCS(=O)(=O)C1 (stereo not given) | 11.2 µM | 11.2 | > 95 µM (inactive) | > 95 | > 95 |
| O=C(NCc1ccccc1)C(c1cccnc1)N(C(=O)c1ccccn1)c1ccccc1F (stereo not given) | > 100 µM (inactive) | > 100 | > 95 µM (inactive) | > 95 | > 95 |
| O=C(COC(=O)C1CC(=O)N(Cc2ccccc2)C1)Nc1ccccc1F (stereo not given) | inactive | 44.6 | > 95 µM (inactive) | > 95 | > 95 |
| O=C(OCn1nnc2ccccc2c1=O)c1ccc(Br)o1 | > 100 µM (inactive) | > 100 | > 95 µM (inactive) | > 95 | > 95 |
| COc1ccc(CCN=C2SCC(=O)N2Cc2ccccc2)cc1OC | > 100 µM (inactive) | > 100 | > 95 µM (inactive) | > 95 | > 95 |
| CCC(=O)Nc1nc2nc(-c3ccccc3)cc(-c3ccccc3)n2n1 | > 100 µM (inactive) | > 100 | > 95 µM (inactive) | > 95 | > 95 |
| CCCc1c(O)c2ccccc2[nH]c1=O | > 100 µM (inactive) | > 100 | > 95 µM (inactive) | > 95 | > 95 |
| CCc1ccc(C2CC(=O)N(c3cccc(F)c3)C3=C2C(=O)OC3)cc1 (stereo not given) | > 100 µM (inactive) | > 100 | > 95 µM (inactive) | > 95 | > 95 |
